Where a SMILES comes first, the peptide text is derived from it. [ ]: non-standard residue; d: D form. Hyp(2-Ph-quinolin-4-yl) = O=C(O)[C@@H]1C[C@@H](Oc2cc(-c3ccccc3)nc3ccccc23)CN1; Ac3c(1R,2S-2-vinyl) = C=C[C@@H]1C[C@]1(N)C(=O)O; Chg = N[C@H](C(=O)O)C1CCCCC1
Assay: Inhibitory activity against the hepatitis C virus NS3 protease was determined
Set-up: species or system Hepacivirus hominis

| IC50 | SMILES |
| --- | --- |
| 22 µM | CC(=O)N[C@H](C(=O)N[C@H](C(=O)N1C[C@H](OCc2cccc3ccccc23)C[C@H]1C(=O)N[C@]1(C(=O)O)C[C@H]1CCc1ccccc1)C(C)C)C1CCCCC1 |
| 90 µM | CC(=O)N[C@H](C(=O)N[C@H](C(=O)N1C[C@H](OCc2cccc3ccccc23)C[C@H]1C(=O)N[C@@]1(C(=O)O)C[C@@H]1CCc1ccccc1)C(C)C)C1CCCCC1 |
| 81 µM | CC(=O)N[C@H](C(=O)N[C@H](C(=O)N1C[C@H](OCc2cccc3ccccc23)C[C@H]1C(=O)N[C@@]1(C(=O)O)C[C@@H]1Cc1ccccc1)C(C)C)C1CCCCC1 |
| 5.5 µM | CC(=O)N[C@H](C(=O)N[C@H](C(=O)N1C[C@H](OCc2cccc3ccccc23)C[C@H]1C(=O)N[C@]1(C(=O)O)C[C@H]1C(C)C)C(C)C)C1CCCCC1 |
| 640 µM | CC(=O)N[C@H](C(=O)N[C@H](C(=O)N1C[C@H](OCc2cccc3ccccc23)C[C@H]1C(=O)N[C@@]1(C(=O)O)C[C@@H]1C(C)C)C(C)C)C1CCCCC1 |
| 14 µM | CC(=O)N[C@H](C(=O)N[C@H](C(=O)N1C[C@H](OCc2cccc3ccccc23)C[C@H]1C(=O)N[C@]1(C(=O)O)C[C@H]1Cc1ccccc1)C(C)C)C1CCCCC1 |
| 0.019 µM | C=C[C@@H]1C[C@]1(NC(=O)[C@@H]1C[C@@H](Oc2cc(-c3ccccc3)nc3ccccc23)CN1C(=O)[C@@H](NC(=O)[C@@H](NC(C)=O)C1CCCCC1)C(C)C)C(=O)O (Ac-[Chg]V[Hyp(2-Ph-quinolin-4-yl)][Ac3c(1R,2S-2-vinyl)]-OH) |
| 140 µM | CC(=O)N[C@H](C(=O)N[C@H](C(=O)N1CC(OCc2ccccc2)CC1C(=O)N[C@@H](CS)C(=O)O)C(C)C)C1CCCCC1 (single isomer, unassigned) |
| 330 µM | CC(=O)N[C@H](C(=O)N[C@H](C(=O)N1CC(OCc2ccccc2)CC1C(=O)NC1(C(=O)O)CC1)C(C)C)C1CCCCC1 (single isomer, unassigned) |
| 32 µM | CC[C@H]1C[C@@]1(NC(=O)C1CC(OCc2cccc3ccccc23)CN1C(=O)[C@@H](NC(=O)[C@@H](NC(C)=O)C1CCCCC1)C(C)C)C(=O)O (single isomer, unassigned) |
| 0.85 µM | COc1ccc2c(OC3CC(C(=O)NC4(C(=O)O)CC4)N(C(=O)[C@@H](NC(=O)[C@@H](NC(C)=O)C4CCCCC4)C(C)C)C3)ccnc2c1 (single isomer, unassigned) |
| 23 µM | CCC[C@H](NC(=O)C1CC(OCc2cccc3ccccc23)CN1C(=O)[C@@H](NC(=O)[C@@H](NC(C)=O)C1CCCCC1)C(C)C)C(=O)O (single isomer, unassigned) |
| 41 µM | CCC[C@H]1C[C@@]1(NC(=O)C1CC(OCc2cccc3ccccc23)CN1C(=O)[C@@H](NC(=O)[C@@H](NC(C)=O)C1CCCCC1)C(C)C)C(=O)O (single isomer, unassigned) |
| 9.7 µM | C=C[C@@H]1C[C@]1(NC(=O)C1CC(OCc2ccccc2)CN1C(=O)[C@@H](NC(=O)[C@@H](NC(C)=O)C1CCCCC1)C(C)C)C(=O)O (single isomer, unassigned) |
| 22 µM | CC(=O)N[C@H](C(=O)N[C@H](C(=O)N1CC(OCc2cccc3ccccc23)CC1C(=O)N[C@]1(C(=O)O)C[C@H]1C)C(C)C)C1CCCCC1 (single isomer, unassigned) |
| 4.8 µM | CC[C@@H]1C[C@]1(NC(=O)C1CC(OCc2cccc3ccccc23)CN1C(=O)[C@@H](NC(=O)[C@@H](NC(C)=O)C1CCCCC1)C(C)C)C(=O)O (single isomer, unassigned) |
| 14 µM | CC(=O)N[C@H](C(=O)N[C@H](C(=O)N1CC(OCc2cccc3ccccc23)CC1C(=O)NC1(C(=O)O)CC1)C(C)C)C1CCCCC1 (single isomer, unassigned) |
| 0.63 µM | C=C[C@@H]1C[C@]1(NC(=O)C1CC(OCc2cccc3ccccc23)CN1C(=O)[C@@H](NC(=O)[C@@H](NC(C)=O)C1CCCCC1)C(C)C)C(=O)O (single isomer, unassigned) |
| 0.55 µM | CC(=O)N[C@H](C(=O)N[C@H](C(=O)N1CC(Oc2cc(-c3ccccc3)nc3ccccc23)CC1C(=O)NC1(C(=O)O)CC1)C(C)C)C1CCCCC1 (single isomer, unassigned) |
| 310 µM | CCC1(CC)C[C@]1(NC(=O)C1CC(OCc2cccc3ccccc23)CN1C(=O)[C@@H](NC(=O)[C@@H](NC(C)=O)C1CCCCC1)C(C)C)C(=O)O (single isomer, unassigned) |
| 5.5 µM | CCC[C@@H]1C[C@]1(NC(=O)C1CC(OCc2cccc3ccccc23)CN1C(=O)[C@@H](NC(=O)[C@@H](NC(C)=O)C1CCCCC1)C(C)C)C(=O)O (single isomer, unassigned) |
| 180 µM | CC(=O)N[C@H](C(=O)N[C@H](C(=O)N1CC(OCc2cccc3ccccc23)CC1C(=O)N[C@@]1(C(=O)O)C[C@@H]1C)C(C)C)C1CCCCC1 (single isomer, unassigned) |
| 530 µM | CCC[C@H](NC(=O)C1CC(OCc2ccccc2)CN1C(=O)[C@@H](NC(=O)[C@@H](NC(C)=O)C1CCCCC1)C(C)C)C(=O)O (single isomer, unassigned) |
| 0.029 µM | C=C[C@@H]1C[C@]1(NC(=O)C1CC(Oc2ccnc3cc(OC)ccc23)CN1C(=O)[C@@H](NC(=O)[C@@H](NC(C)=O)C1CCCCC1)C(C)C)C(=O)O (single isomer, unassigned) |
